Here are results for six compounds from patent US12466806B2, “2-substituted imidazolidine derivative containing aryl bipyridyloxy structure and preparation method and use thereof” (NANTONG UNIVERSITY, priority 2020, dated 2025).

This test deals with Mythimna separata. Nature of the test: Screening of insecticidal activity against Mythimna separata, leaf soaking method (IRAC). Type of test: in vivo. Conditions: concentration 500 μg/mL; 3rd instar larvae on soaked corn leaves; investigated after 48 h; 24-27° C. On the procedure: Screening of Insecticidal Activity of Compounds Against Mythimna separate
Adopting the leaf soaking method proposed by the International Resistance Action Committee (IRAC): the test target is Mythimna separata, e.g. the appropriate amount of corn leaves was fully infiltrated in the prepared liquid and then dried naturally in the shade, and placed in a petri dish with a filter paper. The 3rd instar larvas of Mythimna separata were added 10 heads per dish, cultured in the observation room at 24-27° C., and the results were investigated after 48 h. Using a brush to touch the body of the Mythimna separata, if there is no response, it is regarded as a dead insect. The test concentration is 500 μg/mL (the other concentrations of the drug solution can be obtained by diluting the drug solution with the concentration of 500 μg/mL).
As to `O=[N+]([O-])/N=C1\NCCN1Cc1ccc(Oc2ccc(Cl)cc2)nc1` [I b], the “death rate % Mythimna separata” value is recorded as 100%.

In the case of `O=[N+]([O-])/N=C1\NCCN1Cc1ccc(Oc2ccc(Cl)cc2Cl)nc1` [I e], the “death rate % Mythimna separata” value is given as 100%.

Consider `O=[N+]([O-])/N=C1\NCCN1Cc1ccc(Oc2cccc(F)c2F)nc1` [I f], for which the “death rate % Mythimna separata” value is listed as 100%.

On to `O=[N+]([O-])/N=C1\NCCN1Cc1ccc(Oc2ccc(Br)cc2)nc1` [I c], for which the “death rate % Mythimna separata” value amounted to 80%.

As to `O=[N+]([O-])/N=C1\NCCN1Cc1ccc(Oc2ccc(F)cc2)nc1` [I a], the “death rate % Mythimna separata” value amounted to 100%.

Consider `O=[N+]([O-])/N=C1\NCCN1Cc1ccc(Oc2ccccc2)nc1` [I d], for which the “death rate % Mythimna separata” value was 100%.
